ChEMBL document CHEMBL1201862, “PubChem BioAssay data set” (2004)
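Assay format: 96-well plates, 48-hour exposure. Here, GI50 denotes the concentration required for 50% inhibition of growth.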 The source made the active and inactive calls. Cut-off read from the data, not from the text of the source: active = GI50 up to about 1.1 µM and inactive = higher.

Assays:
Assay in all cases: inhibition of tumour cell growth, NCI panel, 48 h
[1] = system: A549
[2] = system: OVCAR-3
[3] = system: CAKI-1
[4] = system: SF-295
[5] = system: SK-MEL-5
[6] = system: HT-29
[7] = system: HCT-15
[8] = system: UACC-257
[9] = system: SK-MEL-28
[10] = system: HOP-92
[11] = system: NCI/ADR-RES
[12] = system: RXF 393
[13] = system: HCT-116
[14] = system: NCI-H226
[15] = system: NCI-H522
[16] = system: KM12
[17] = system: M14
[18] = system: NCI-H460
[19] = system: COLO 205
[20] = system: MCF7

Structure (SMILES)	GI50 [1]	GI50 [2]	GI50 [3]	GI50 [4]	GI50 [5]	GI50 [6]	GI50 [7] [µM]	GI50 [8]	GI50 [9]	GI50 [10]	GI50 [11]	GI50 [12]	GI50 [13]	GI50 [14]	GI50 [15]	GI50 [16]	GI50 [17]	GI50 [18]	GI50 [19]	GI50 [20]
Cc1ncc(COP(=O)(O)O)c(C)c1O	> 100 µM (inactive)	> 100 µM (inactive)	> 100 µM (inactive)	> 100 µM (inactive)	> 100 µM (inactive)	> 100 µM (inactive)	> 100	> 100 µM (inactive)	> 100 µM (inactive)	> 100 µM (inactive)	> 100 µM (inactive)	> 100 µM (inactive)	> 100 µM (inactive)	> 100 µM (inactive)	> 100 µM (inactive)	> 100 µM (inactive)	> 100 µM (inactive)	> 100 µM (inactive)	–	–
CCOC(=O)c1c(NC(=O)c2ccc(Br)cc2)sc2c1CCCC2	> 100 µM (inactive)	> 100 µM (inactive)	> 100 µM (inactive)	> 100 µM (inactive)	> 100 µM (inactive)	> 100 µM (inactive)	–	> 100 µM (inactive)	> 100 µM (inactive)	–	–	> 100 µM (inactive)	> 100 µM (inactive)	> 100 µM (inactive)	–	39.1 µM (inactive)	> 100 µM (inactive)	0.182 µM (active)	> 100 µM (inactive)	> 100 µM (inactive)
C=C(NC(=O)C(=C)NC(=O)c1csc(C2=NC3c4csc(n4)C4NC(=O)c5csc(n5)C(C(C)(O)C(C)O)NC(=O)C5CSC(=N5)/C(=C/C)NC(=O)C(C(C)O)NC(=O)c5csc(n5)C3(CC2)NC(=O)C(C)NC(=O)C(=C)NC(=O)C(C)NC(=O)C(C(C)CC)NC2C=Cc3c(C(C)O)cc(nc3C2O)C(=O)OC4C)n1)C(N)=O (stereo unspecified)	4.57 µM (inactive)	1.75 µM (inactive)	2.92 µM (inactive)	4 µM (inactive)	1.34 µM (inactive)	1.43 µM (inactive)	4.12	1.75 µM (inactive)	1.27 µM (inactive)	1.7 µM (inactive)	> 58.3 µM (inactive)	–	0.51 µM (active)	1.9 µM (inactive)	0.287 µM (active)	1.93 µM (inactive)	1.67 µM (inactive)	1.72 µM (inactive)	–	–
COc1ccc2nc3ccc(OC)cc3c(SCc3ccc([N+](=O)[O-])cc3)c2c1	> 100 µM (inactive)	63 µM (inactive)	44.1 µM (inactive)	31.5 µM (inactive)	–	24.1 µM (inactive)	> 100	> 100 µM (inactive)	> 100 µM (inactive)	> 100 µM (inactive)	67 µM (inactive)	> 100 µM (inactive)	70.3 µM (inactive)	42.8 µM (inactive)	17.3 µM (inactive)	> 100 µM (inactive)	> 100 µM (inactive)	> 100 µM (inactive)	> 100 µM (inactive)	–
O=C(c1cccnc1)N1N=C(c2ccc(Cl)cc2)CC1(O)c1cc(F)c(Cl)cc1Cl (stereo unspecified)	24.9 µM (inactive)	6.5 µM (inactive)	28.5 µM (inactive)	19.5 µM (inactive)	11.3 µM (inactive)	14.8 µM (inactive)	13.6	18.5 µM (inactive)	23.6 µM (inactive)	17.5 µM (inactive)	16 µM (inactive)	7.05 µM (inactive)	8.3 µM (inactive)	11.6 µM (inactive)	19.5 µM (inactive)	28.8 µM (inactive)	22 µM (inactive)	21.5 µM (inactive)	9.98 µM (inactive)	–
N#C/C(=C\c1ccc2ccccc2c1)C(=O)c1ccccc1	> 100 µM (inactive)	> 65.2 µM (inactive)	> 100 µM (inactive)	> 54.6 µM (inactive)	> 63 µM (inactive)	> 67.3 µM (inactive)	65	82 µM (inactive)	> 47 µM (inactive)	–	–	36.2 µM (inactive)	> 61.4 µM (inactive)	> 100 µM (inactive)	> 92 µM (inactive)	> 100 µM (inactive)	> 64.9 µM (inactive)	> 94.6 µM (inactive)	> 100 µM (inactive)	> 100 µM (inactive)
